pIC50: −log10 of the molar value.

Our source for the IC50 values is patent publication US11479546B2, “Antimalarial hexahydropyrimidine analogues” (UCB Biopharma SRL, priority 2018, dated 2022).

The test system of the first experiment is Plasmodium falciparum 3D7. Put plainly: P. falciparum 3D7 asexual blood stage assay, Assay Procedure Version 2 (SYBR green readout). The settings on record: Plasmodium falciparum, 3D7, Erythrocyte, 72 h, Version 2 of the assay procedure (asterisk *); 72 h incubation in infected erythrocytes; 50,000 nM to 15 nM. In kind it is cell-based. Put shortly: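 P. falciparum 3D7 in A+ erythrocytes (5% haematocrit, 0.5% parasitaemia) exposed 72 h at 37 °C (1% O2, 3% CO2) to 20-point 1.5-fold titrations, final 50,000–15 nM in 0.5% DMSO. SYBR green in lysis buffer overnight, fluorescence 485/528 nm; % inhibition vs mefloquine and DMSO controls, EC50 from biphasic two-site fit.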
The compound `C[C@H]1C[C@H](N2C(=N)N[C@](C)(c3cccc(Nc4ccc(OC(F)F)nc4)c3Cl)CC2=O)CCO1` (single isomer, unassigned; peak 2) [Example 192, (6S)-6-(2-Chloro-3-{[6-(difluoromethoxy)pyridin-3-yl]-amino}phenyl)-2-imino-6-methyl-3-[(2S*,4R*)-2-methyl-tetrahydropyran-4-yl]-hexahydropyrimidin-4-one (Peak 2)] gave a pIC50 of 5.43.
For the compound `CC[C@]1(O)C[C@@H](N2C(=N)N[C@](C)(c3cccc(Nc4ccc(F)cc4)c3Cl)CC2=O)C1` [Example 178, (6S)-6-[2-Chloro-3-(4-fluoro-anilino)phenyl]-3-(3-ethyl-3-hydroxycyclobutyl)-2-imino-6-methylhexahydropyrimidin-4-one (cis isomer)], the pIC50 was 6.37.
Same read-out and setting: for `C[C@@]1(c2cccc(Nc3ccc4c(c3)OCO4)c2Cl)CC(=O)N(C2CCOCC2)C(=N)N1` [Example 59, (6S)-6-[3-(1,3-Benzodioxol-5-ylamino)-2-chlorophenyl]-2-imino-6-methyl-3-(tetrahydro-pyran-4-yl)hexahydropyrimidin-4-one] the value was 6.44.
For `Cc1ccc(Nc2cccc([C@]3(C)CC(=O)N(C4CCC(F)(F)CC4)C(=N)N3)c2Cl)cn1` [Example 139, (6S)-6-{2-Chloro-3-[(6-methyl-pyridin-3-yl)amino]phenyl}-3-(4,4-difluorocyclohexyl)-2-imino-6-methylhexahydro-pyrimidin-4-one], the pIC50 is 6.88. This pIC50 is 0.44 log units higher than that of the compound before.
Same read-out and setting: for `C[C@@]1(c2cccc(Nc3ccc(CC(F)(F)F)nc3)c2Cl)CC(=O)N(C2CCOCC2)C(=N)N1` [Example 119, (6S)-6-(2-Chloro-3-{[6-(2,2,2-trifluoroethyl)pyridin-3-yl]-amino}phenyl)-2-imino-6-methyl-3-(tetrahydropyran-4-yl)hexahydropyrimidin-4-one] the value was 6.63; for `CN1CCOc2cc(Nc3cccc([C@]4(C)CC(=O)N(C5CCOCC5)C(=N)N4)c3Cl)ccc21` [Example 86, (6S)-6-{2-Chloro-3-[(4-methyl-2,3-dihydro-1,4-benzoxazin-7-yl)amino]phenyl}-2-imino-6-methyl-3-(tetrahydropyran-4-yl)hexahydropyrimidin-4-one], 6.18.
Same read-out and setting: for `C[C@@]1(c2cccc(Nc3nccnc3OC(F)F)c2Cl)CC(=O)N(C2CCOCC2)C(=N)N1` [Example 101, (6S)-6-(2-Chloro-3-{[3-(difluoromethoxy)pyrazin-2-yl]-amino}phenyl)-2-imino-6-methyl-3-(tetrahydropyran-4-yl)hexahydropyrimidin-4-one] the value was 7.01; for `C[C@@H]1C[C@H](N2C(=N)N[C@](C)(c3cccc(Nc4ccc(OCC(F)F)nc4)c3Cl)CC2=O)CCO1` (relative stereo) [Example 203, (6S)-6-(2-Chloro-3-{[6-(2,2-difluoroethoxy)pyridin-3-yl]-amino}phenyl)-2-imino-6-methyl-3-[(2R*,4R*)-2-methyl-tetrahydropyran-4-yl]-hexahydropyrimidin-4-one], 7.24.
On the same count and under the same terms, then `C[C@@]1(c2cccc(Nc3ccc(Cl)nc3)c2Cl)CC(=O)N(C2CCOCC2)C(=N)N1` [Example 60, (6S)-6-{2-Chloro-3-[(6-chloro-pyridin-3-yl)amino]phenyl}-2-imino-6-methyl-3-(tetrahydro-pyran-4-yl)hexahydropyrimidin-4-one], with 6.57; and `C[C@@H]1C[C@@H](N2C(=N)N[C@](C)(c3cccc(Nc4ccc(OC(F)F)nc4)c3Cl)CC2=O)CCO1` (single isomer, unassigned; peak 1) [Example 191, (6S)-6-(2-Chloro-3-{[6-(difluoromethoxy)pyridin-3-yl]-amino}phenyl)-2-imino-6-methyl-3-[(2R*,4S*)-2-methyl-tetrahydropyran-4-yl]-hexahydropyrimidin-4-one (Peak 1)], with 6.44.

The subject of a further experiment is Plasmodium falciparum 3D7. Put plainly: P. falciparum 3D7 asexual blood stage assay, Assay Procedure Version 1 (SYBR green readout). Type of experiment: cell-based. The settings on record: 3D7, Erythrocyte, Version 1 of the assay procedure (no asterisk), 72 h incubation in infected erythrocytes, 10,000 nM to 0.51 nM. Here is the method:
Asexual Blood Stage Assay
The assay used to measure the effect of test compounds on a bloodstream stage of Plasmodium falciparum 3D7 strain employs SYBR green as the readout. This is a dye that binds to double stranded deoxyribonucleic acid (DNA) with a resulting increase in fluorescence, allowing detection of P. falciparum DNA in infected erythrocytes, and thereby providing a measure of parasite growth and propagation.
P. falciparum Culture Maintenance
Erythrocytes (A+blood) were prepared for both parasite culture and assay by washing 4 times with incomplete media (15.9 g RPMI 1640 (25 mM HEPES, L-glutamine), 1 g NaHCO3, 2 g glucose, 400 μL gentacin (500 mg/mL), 2 mL hypoxanthine solution (13.6 g/L in 0.1M NaOH pH 7.3) in 1 litre of media). The cells were centrifuged at 1800 g for 5 minutes, before decanting the supernatant and re-suspending in fresh incomplete media. On the final wash, the cells were re-suspended in complete media (incomplete media with 5 g/L AlbumaxII), and centrifuged at 1800 g for 3 minutes. This cell sediment was treated as 100% haematocrit.
P. falciparum 3D7 was cultured in erythrocytes at 5% haematocrit in complete media at 37° C. (1% O2, 3% CO2, balance N2). Cultures were split on a weekly basis to achieve a 1% parasitaemia in erythrocites at 5% haematocrit in fresh media. Culture media is replaced by fresh media every other day (2 times during the week).
Assay Procedure—Version 1
On day 1, test compounds were added to assay plates using Echo dispensing technology (3 fold dilution and 10 points titration). 50 nL of each compound dilution was added to 50 μL of culture (5% haematocrit, 0.5% parasitaemia) and incubated for 72 h at 37° C. (1% O2, 3% CO2, balance N2). Final concentrations of test compounds ranged from 10,000 nM to 0.51 nM, in […].
On day 4, 10 μL SYBR green (Invitrogen S7563 supplied as 10,000×concentrate in DMSO) pre-diluted to 3× concentrate with Lysis buffer (20 mM Tris pH 7.9, 5% EDTA, 0.16% w/v, 1.6% TX100 v/v) was added to the cultures and incubated in the dark, overnight, at room temperature.
On day 5, fluorescent signal was measured using a BioTek plate reader (excitation 485 nm, emission 528 nm). All data were processed using IDBS ActivityBase. Raw data were converted into percent inhibition through linear regression by setting the high inhibition control as 100% and the no inhibition control as 0%. Quality control criteria for passing plates were as follows: Z′>0.5, S:B>3, % CV(no inhibition control)<15. The formula used to calculate Z′ is
All EC50 curve fitting was undertaken using the following 4 parametric equation:
[formula] where A=% inhibition at bottom; B=% inhibition at top; C=EC50; D=slope; x=inhibitor concentration; and y=% inhibition. […] Assay Procedure—Version 2
The compound `C[C@@]1(c2cccc(Nc3ccc(C(F)(F)F)cc3)c2Cl)CC(=O)N(C2CCOCC2)C(=N)N1` [Example 11, (6S)-6-{2-Chloro-3-[4-(tri-fluoromethyl)anilino]phenyl}-2-imino-6-methyl-3-(tetrahydro-pyran-4-yl)hexahydropyrimidin-4-one] had a pIC50 of 6.09.
Same read-out and setting: then `C[C@@]1(c2cccc(Nc3ccc(Cl)c(F)c3)c2Cl)CC(=O)N(C2CCOCC2)C(=N)N1` [Example 33, (6S)-6-[2-Chloro-3-(4-chloro-3-fluoroanilino)phenyl]-2-imino-6-methyl-3-(tetrahydropyran-4-yl)hexahydropyrimidin-4-one], with 5.74.
`COc1cc(Nc2cccc([C@]3(C)CC(=O)N(C4CCOCC4)C(=N)N3)c2Cl)cc(OC)c1` [Example 161, (6S)-6-[2-Chloro-3-(3,5-dimethoxyanilino)phenyl]-2-imino-6-methyl-3-(tetrahydro-pyran-4-yl)hexahydropyrimidin-4-one] had a pIC50 of 5.77. The pIC50 values of the last two compounds are within 0.2 log units of each other.
On the same count and under the same terms, for `C[C@@]1(c2cccc(Nc3ccc(C#N)c(F)c3)c2Cl)CC(=O)N([C@H]2C[C@@](C)(O)C2)C(=N)N1` [Example 121, 4-{2-Chloro-3-[(4S)-1-(3-hydroxy-3-methylcyclobutyl)-2-imino-4-methyl-6-oxo-hexahydropyrimidin-4-yl]-anilino}-2-fluorobenzonitrile] the value was 5.78; for `C[C@@]1(c2ccc(F)c(Nc3ccc(F)cc3)c2Cl)CC(=O)N(C2CCOCC2)C(=N)N1` [Example 206, (6S)-6-[2-Chloro-4-fluoro-3-(4-fluoroanilino)phenyl]-2-imino-6-methyl-3-(tetrahydro-pyran-4-yl)hexahydropyrimidin-4-one], 6.61.
Still for that read-out and setting: then `C[C@@]1(c2cccc(Nc3cccc(F)c3)c2Cl)CC(=O)N(C2CCOCC2)C(=N)N1` [Example 168, (6S)-6-[2-Chloro-3-(3-fluoro-anilino)phenyl]-2-imino-6-methyl-3-(tetrahydropyran-4-yl)hexahydropyrimidin-4-one], with 6.60.
Compound `C[C@@]1(c2cccc(Nc3ccc(C#N)nc3)c2Cl)CC(=O)N(C2CCOCC2)C(=N)N1` [Example 40, 5-{2-Chloro-3-[(4S)-2-imino-4-methyl-6-oxo-1-(tetrahydro-pyran-4-yl)hexahydropyrimidin-4-yl]anilino}pyridine-2-carbo-nitrile] had a pIC50 of 5.82.
Still for that read-out and setting: then `C[C@@]1(c2cccc(Nc3ccccc3)c2Cl)CC(=O)N([C@@H]2CCOC2)C(=N)N1` (relative stereo) [Example 6, (6S)-6-(3-Anilino-2-chloro-phenyl)-2-imino-6-methyl-3-[(3S or 3R*)-tetrahydrofuran-3-yl]hexahydropyrimidin-4-one], with 7.15.
On the same count and under the same terms, for `CC1(O)CC(N2C(=N)N[C@](C)(c3cccc(Nc4ccc(F)cc4)c3Cl)CC2=O)C1` (stereo partly drawn) [Example 172, (6S)-6-[2-Chloro-3-(4-fluoro-anilino)phenyl]-3-(3-hydroxy-3-methylcyclobutyl)-2-imino-6-methylhexahydropyrimidin-4-one] the value was 6.64; for `CC1(CN2C(=N)N[C@](C)(c3cccc(Nc4ccc(F)cc4)c3Cl)CC2=O)COC1` [Example 175, (6S)-6-[2-Chloro-3-(4-fluoro-anilino)phenyl]-2-imino-6-methyl-3-[(3-methyloxetan-3-yl)methyl]hexahydropyrimidin-4-one], 5.55.
Still for that read-out and setting: for `C[C@@]1(c2cccc(Nc3ccc(F)cc3)c2Cl)CC(=O)N(C2CC3(COC3)C2)C(=N)N1` [Example 171, (6S)-6-[2-Chloro-3-(4-fluoro-anilino)phenyl]-2-imino-6-methyl-3-(2-oxaspiro[3.3]-heptan-6-yl)hexahydro-pyrimidin-4-one] the value was 5.94; for `C[C@@]1(c2cccc(Nc3ccc(C#N)cc3)c2Cl)CC(=O)N(C2CCOCC2)C(=N)N1` [Example 18, 4-{2-Chloro-3-[(4S)-2-imino-4-methyl-6-oxo-1-(tetrahydro-pyran-4-yl)hexahydropyrimidin-4-yl]anilino}benzonitrile], 6.27.

In general, pIC50 refers to the IC50 on a negative log10 scale, so that one unit is a factor of ten. Lower therefore signals a high IC50.
